# What was measured:
# Candida rugosa lipase = details: read-out: IC50 against lipase; positive control; ref Chupeerach et al., 2022[35]; cited from earlier work
# rabbit lung ACE = target: T1, rabbit lung ACE (Oryctolagus cuniculus, UniProt P12822); experiment: ACE inhibitory assay; type: biochemical; details: IC50 against ACE, positive control; performed in this study
# T1 sequence (P12822 34-1310): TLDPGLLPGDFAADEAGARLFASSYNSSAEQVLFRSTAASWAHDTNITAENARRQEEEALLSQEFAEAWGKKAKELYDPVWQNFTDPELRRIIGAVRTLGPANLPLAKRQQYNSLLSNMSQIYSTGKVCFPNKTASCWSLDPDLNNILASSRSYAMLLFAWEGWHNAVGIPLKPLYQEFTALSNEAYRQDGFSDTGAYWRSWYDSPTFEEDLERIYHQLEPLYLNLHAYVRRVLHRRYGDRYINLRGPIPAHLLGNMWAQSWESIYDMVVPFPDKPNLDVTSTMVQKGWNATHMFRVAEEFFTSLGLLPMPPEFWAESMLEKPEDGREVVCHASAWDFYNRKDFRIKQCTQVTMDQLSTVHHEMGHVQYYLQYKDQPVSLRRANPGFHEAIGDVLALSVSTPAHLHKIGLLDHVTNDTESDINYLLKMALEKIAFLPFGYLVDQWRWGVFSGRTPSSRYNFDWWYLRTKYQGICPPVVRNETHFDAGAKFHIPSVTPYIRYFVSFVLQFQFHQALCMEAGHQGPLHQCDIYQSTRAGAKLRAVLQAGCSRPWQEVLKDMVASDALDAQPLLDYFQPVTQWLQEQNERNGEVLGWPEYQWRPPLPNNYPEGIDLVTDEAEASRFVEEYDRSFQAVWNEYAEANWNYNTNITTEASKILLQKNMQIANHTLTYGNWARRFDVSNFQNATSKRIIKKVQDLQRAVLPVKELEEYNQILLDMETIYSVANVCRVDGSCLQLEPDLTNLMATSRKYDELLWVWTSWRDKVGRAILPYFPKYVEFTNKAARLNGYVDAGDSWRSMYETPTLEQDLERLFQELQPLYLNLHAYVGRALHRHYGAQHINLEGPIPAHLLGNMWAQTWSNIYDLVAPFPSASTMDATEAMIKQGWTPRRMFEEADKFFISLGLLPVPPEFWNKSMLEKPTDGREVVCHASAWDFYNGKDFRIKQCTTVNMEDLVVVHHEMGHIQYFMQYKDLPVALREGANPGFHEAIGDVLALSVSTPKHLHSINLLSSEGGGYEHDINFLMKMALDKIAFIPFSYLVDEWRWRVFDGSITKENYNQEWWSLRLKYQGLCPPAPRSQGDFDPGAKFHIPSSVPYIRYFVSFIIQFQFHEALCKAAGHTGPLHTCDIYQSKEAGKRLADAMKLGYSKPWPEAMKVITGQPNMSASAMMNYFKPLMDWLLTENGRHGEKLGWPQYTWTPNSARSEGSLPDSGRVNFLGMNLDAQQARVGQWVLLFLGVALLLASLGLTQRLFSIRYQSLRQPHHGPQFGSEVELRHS
SMILES,IC50 (Candida rugosa lipase) [µM],IC50 (rabbit lung ACE) [µM]
"CCCCCCCCCCC[C@@H](C[C@@H]1OC(=O)[C@H]1CCCCCC)OC(=O)[C@H](CC(C)C)NC=O [Orlistat, orlistat]",7.94,–
"NCCCC[C@H](N[C@@H](CCc1ccccc1)C(=O)O)C(=O)N1CCC[C@H]1C(=O)O [Lisinopril, lisinopril]",–,0.00179

# Source: paper PMC11467430 (Scientific Reports, 2024)
